Converted amounts (≈) assume the structure as drawn. Where two headings read alike, the source gives them in different places.
Columns and labels:
B. subtilis (ATCC 6633) = experiment: Minimum inhibitory concentration, broth microdilution; settings: Bacillus subtilis, ATCC6633, read-out: Minimum Inhibitory Concentration B.subtilis
Method: (§1) Antibacterial minimum inhibitory concentrations (MICs) were obtained from three independent experiments using broth microdilution methods in 96-well plates according to Clinical and Laboratory Standards Institute guidelines. Cells were culture from singles colonies in MHIIB medium for 24 h at 37° C. in agitation (200 RPM). The cultures were then diluted using the same media to reach an OD600 of 0.1. Then, 50 µL of the diluted cultures were added to the plates holding 50 µL of serially diluted compounds in MHIIB. The plates were incubated at 37° C. for 20 h. The starting inoculum was fixated to 10^5 colony-forming units per ml.

E. coli DNA gyrase [1] = target: T1, E. coli DNA gyrase (Escherichia coli (strain K12), UniProt P0AES4+P0AES6); experiment: biochemical; type: biochemical
E. coli DNA gyrase [2] = target: T1, E. coli DNA gyrase; experiment: Agarose gel-based DNA gyrase inhibition assay; type: biochemical
Method: 100 ng of DNA gyrase was used to supercoil the rx pAB1 in the presence of different concentrations of a gyrase inhibitor. […] Samples were analyzed by electrophoresis in 1% w/v agarose gels followed by ethidium bromide staining and photographed under UV light.

Mtb DNA gyrase = Mtb DNA gyrase (Mycobacterium tuberculosis (strain ATCC 25618 / H37Rv), UniProt P9WG45+P9WG47); experiment: Mtb DNA gyrase inhibition assay (gel-based); type: biochemical; settings: Table 5, Mtb gyrase; read-out: IC50 (µM) Mtb
Method: The IC50 against E. coli (A) and Mtb (C) gyrase were determined using the gel-based gyrase inhibition assays. The gyrase mediated DNA cleavage assays (B and D) were performed using pBR322. (A) 229 inhibits E. coli gyrase. Lane 1, rx pAB1. […] Lane 1, rx pAB1. […] 100 µM of CPDs were used. Symbols rx, nk, In, and sc represent relaxed, nicked, linear, and supercoiled DNA, respectively.
Agarose gel-based DNA gyrase inhibition assays were performed in 30 µL of 1 ×gyrase buffer (35 mM Tris-HCl, 24 mM KCl, 4 mM MgCl2, 2 mM DTT, 1.75 mM ATP, 0.1 mg/mL BSA, 6.5% glycerol, pH7.5) containing 400 ng of rx pAB1 at 37° C. 100 ng of DNA gyrase was used to supercoil the rx pAB1 in the presence of different concentrations of a gyrase inhibitor. After 15 minutes of incubation with the inhibitor at 37° C., all reactions were stopped with 1 µL of stop solution (3% SDS and 250 mM EDTA). Samples were analyzed by electrophoresis in 1% w/v agarose gels followed by ethidium bromide staining and photographed under UV light.

S. aureus (ATCC 14775) = experiment: Minimum inhibitory concentration, broth microdilution; settings: for MIC: Staphylococcus aureus
Method: as §1

Mtb = Mtb whole cell assay (% inhibition, MIC); type: cell-based, Mycobacterium tuberculosis; settings: Mycobacterium tuberculosis; Table 5 (same values in Table 6 at 20 µM)
MRSA = experiment: Minimum inhibitory concentration, broth microdilution; settings: for MIC: Staphylococcus aureus, MRSA
Method: as §1

[3] = IC50 (15-[…] µM), bin of Table 2
[4] = IC50 (µM) EC, Table 5, E. coli gyrase
[5] = ATCC14775, read-out: MIC (µM) SA
[6] = IC50 ([…]-50 µM), bin of Table 2
[7] = IC50 (50-200 µM), bin of Table 2
[8] = ATCC14775, read-out: Minimum Inhibitory Concentration S.aureus
[9] = read-out: Minimum Inhibitory Concentration S.aureus MRSA

Structure (SMILES) | MIC (B. subtilis (ATCC 6633)) | inhibition of E. coli DNA gyrase activities (E. coli DNA gyrase [2]; 50 µM of compounds) | inhibition of E. coli DNA gyrase activities (E. coli DNA gyrase [2]; 200 µM of compounds) | MIC (S. aureus (ATCC 14775); [8]) | MIC (MRSA; [9]) | other results
CN1C(=O)C(=Cc2ccc(Sc3ccccc3)o2)C(=O)N(C)C1=S [Compound 161] | 200 µM (≈ 71.7 µg/mL) | completely inhibited |  |  |  | IC50 (E. coli DNA gyrase [1]; [3]): 15 to 25 µM
Cc1c(C)c2cc3c(-c4ccc(Br)cc4)coc3c(C)c2oc1=O [Compound 118] |  |  |  |  |  | IC50 (Mtb DNA gyrase): > 200 µM; IC50 (E. coli DNA gyrase [1]; [4]): > 200 µM; MIC (S. aureus (ATCC 14775); [5]): > 200 µM; inhibition at 20 µM (Mtb): 21.8%; MIC (MRSA; read-out: MIC (µM) MRSA): > 200 µM
COc1cc(C(=O)Nc2scc(-c3ccc(Br)cc3)c2C(=O)O)cc(OC)c1OC [Compound 189] | 100 µM (≈ 49.2 µg/mL) | completely inhibited |  |  |  | IC50 (E. coli DNA gyrase [1]; [6]): 25 to 50 µM
O=C(O)CCCN1C(=O)C(=Cc2ccc(-c3nc4ccccc4s3)o2)SC1=S [Compound 41] | 6.25 µM (≈ 2.69 µg/mL) | completely inhibited | completely inhibited |  |  | 
O=C(O)c1cc(O)c2c(c1)C(=O)c1cccc(O)c1C2=O [Compound 82] | 50 µM (≈ 14.2 µg/mL) |  | almost completely inhibited | 50 µM (≈ 14.2 µg/mL) |  | IC50 (E. coli DNA gyrase [1]; [7]): 50 to 200 µM
CCc1ccc(S(=O)(=O)/N=C2/C=C(Nc3ccc(C(=O)O)cc3)C(=O)c3ccccc32)cc1 [Compound 104] | 50 µM (≈ 23 µg/mL) | completely inhibited |  | 100 µM (≈ 46.1 µg/mL) | 100 µM (≈ 46.1 µg/mL) | IC50 (E. coli DNA gyrase [1]; [6]): 25 to 50 µM
O=C(O)c1ccc(NN=C2c3cc(Br)ccc3NC2O)cc1 (stereo not shown) [Compound 111] | 100 µM (≈ 36.2 µg/mL) | completely inhibited |  |  |  | 
COc1cccc(-n2c(C)cc(/C=C3/C(=N)N4C(=NC3=O)SN=C4[S+](C)[O-])c2C)c1 (stereo not shown) [Compound 105] | 25 µM (≈ 11 µg/mL) | completely inhibited |  | 50 µM (≈ 22.1 µg/mL) | 100 µM (≈ 44.2 µg/mL) | IC50 (E. coli DNA gyrase [1]; [6]): 25 to 50 µM
Cc1coc2cc3oc(=O)c(CCC(=O)O)c(C)c3cc12 [Compound 122] |  | potently inhibited |  |  |  | IC50 (Mtb DNA gyrase): > 200 µM; IC50 (E. coli DNA gyrase [1]; [4]): > 200 µM; MIC (S. aureus (ATCC 14775); [5]): > 200 µM; inhibition at 20 µM (Mtb): 15.7%; MIC (MRSA; read-out: MIC (µM) MRSA): > 200 µM
O=C(/C=C/c1ccco1)Nc1cccc2cccnc12 [Compound 164] |  |  |  | 200 µM (≈ 52.9 µg/mL) | 200 µM (≈ 52.9 µg/mL) | 
O=[N+]([O-])c1cc(/C=N/Nc2nc3ccccc3[nH]2)c(O)cc1O [Compound 159] | 200 µM (≈ 62.7 µg/mL) | completely inhibited |  | 50 µM (≈ 15.7 µg/mL) | 100 µM (≈ 31.3 µg/mL) | 
Cc1ccc(-c2csc(NC(=O)c3cccc(C)c3)c2C(=O)O)cc1 [Compound 58] | 100 µM (≈ 35.1 µg/mL) |  | completely inhibited | 100 µM (≈ 35.1 µg/mL) | 100 µM (≈ 35.1 µg/mL) | IC50 (E. coli DNA gyrase [1]; [7]): 50 to 200 µM
O=C(O)CCCCCN1C(=O)/C(=C\c2ccc(-c3ccc(Cl)cc3)o2)SC1=S [Compound 36] | 12.5 µM (≈ 5.45 µg/mL) | completely inhibited | completely inhibited |  |  | 
O=C(O)c1ccc(/N=N/C2C(O)=Nc3ccc(Cl)cc32)cc1 (stereo not shown) [Compound 126] | 100 µM (≈ 31.6 µg/mL) | completely inhibited |  | 100 µM (≈ 31.6 µg/mL) | 100 µM (≈ 31.6 µg/mL) | 
O=C1N=C(O)/C(=C/c2ccc(N3CCCC3)cc2)C(=O)N1Cc1ccc(F)cc1 [Compound 184] |  | potently inhibited |  | 200 µM (≈ 78.7 µg/mL) | 200 µM (≈ 78.7 µg/mL) | IC50 (E. coli DNA gyrase [1]; [3]): 15 to 25 µM
Cc1cc(C)c2c(c1)C(=NNc1ccc(C(=O)O)cc1)C(O)=N2 [Compound 9, 4-[2-(5,7-Dimethyl-2-oxoindol-3-yl)hydrazinyl]benzoic acid] | 25 µM (≈ 7.73 µg/mL) | completely inhibited | completely inhibited | 3.12 µM (≈ 0.967 µg/mL) | 3.12 µM (≈ 0.967 µg/mL) | inhibition of E. coli DNA gyrase activities (E. coli DNA gyrase [1]): potent gyrase inhibitor; growth of S. aureus (S. aureus (ATCC 14775)): strongly inhibited the growth; growth of MRSA (MRSA): strongly inhibited the growth
Cc1cc(/C=C2\SC(=S)N=C2O)c(C)n1-c1cccc(O)c1 [Compound 21] | 100 µM (≈ 33 µg/mL) | completely inhibited | completely inhibited |  |  | IC50 (E. coli DNA gyrase [1]; [6]): 25 to 50 µM

— patent US20230364057A1, “BACTERIAL DNA GYRASE INHIBITORS AND METHODS OF USE THEREOF” (THE FLORIDA INTERNATIONAL UNIVERSITY BOARD OF TRUSTEES, priority 2022, published 2023)
